Reference: paper PMC11411711 (ACS Nano, 2024)
Read-outs that look alike come from different tables or passages of the source. Square brackets hold non-standard residues; d marks the D form. Peptide text beside a SMILES is read from it. * marks the point of attachment. 5FAM = O=C1OC2(c3ccc(O)cc3Oc3cc(O)ccc32)c2ccc(C(=O)*)cc21; Nle = CCCC[C@H](N)C(=O)O; Cbz = O=C(OCc1ccccc1)*

Tests used:
calpain [1] = conditions: cited from earlier work; for IC50: read-out: IC50, calpain inhibitor; for Ki: read-out: Ki for calpain
[2] = target: T1, recombinant human calpain-1 (Homo sapiens, UniProt P07384); assay: Inhibition of calpain-1 cleavage of CS FRET peptide by titrated CAST/ScrCAST; assay type: biochemical; conditions: up to 1 μM; 8 μM CS substrate; 26.6 nM recombinant human calpain-1; 37C
T1 sequence (P07384 1-714): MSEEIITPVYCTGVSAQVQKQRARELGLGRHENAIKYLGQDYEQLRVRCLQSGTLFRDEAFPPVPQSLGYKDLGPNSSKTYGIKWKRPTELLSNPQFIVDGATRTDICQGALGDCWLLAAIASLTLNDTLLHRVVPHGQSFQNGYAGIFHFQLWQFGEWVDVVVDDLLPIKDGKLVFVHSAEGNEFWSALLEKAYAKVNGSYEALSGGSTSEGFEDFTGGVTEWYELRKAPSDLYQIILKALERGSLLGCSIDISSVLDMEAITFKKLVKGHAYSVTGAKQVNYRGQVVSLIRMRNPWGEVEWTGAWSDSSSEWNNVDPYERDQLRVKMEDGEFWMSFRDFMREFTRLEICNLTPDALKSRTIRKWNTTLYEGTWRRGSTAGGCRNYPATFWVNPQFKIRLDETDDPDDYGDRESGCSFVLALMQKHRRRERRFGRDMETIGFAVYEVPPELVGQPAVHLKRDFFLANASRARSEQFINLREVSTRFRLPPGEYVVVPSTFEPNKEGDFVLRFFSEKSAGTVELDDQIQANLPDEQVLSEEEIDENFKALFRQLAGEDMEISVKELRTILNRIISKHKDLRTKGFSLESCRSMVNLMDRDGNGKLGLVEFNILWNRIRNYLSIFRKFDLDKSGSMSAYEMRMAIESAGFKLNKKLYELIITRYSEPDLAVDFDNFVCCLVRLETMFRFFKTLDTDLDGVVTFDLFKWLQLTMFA
T1 sequence (P04632 1-268 partner): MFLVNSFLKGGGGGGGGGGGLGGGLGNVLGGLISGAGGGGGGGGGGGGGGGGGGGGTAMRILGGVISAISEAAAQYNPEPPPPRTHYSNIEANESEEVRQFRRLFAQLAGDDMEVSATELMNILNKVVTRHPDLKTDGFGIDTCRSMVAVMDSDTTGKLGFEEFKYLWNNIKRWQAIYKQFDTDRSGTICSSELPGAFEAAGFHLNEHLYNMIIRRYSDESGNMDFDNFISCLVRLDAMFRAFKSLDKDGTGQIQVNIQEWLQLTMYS

TBI = conditions: large multicenter clinical trials in TBI; ref [4],[5]; cited from earlier work
calpain-1 = conditions: read-out: Ki for calpain-1; calpain inhibitor II; ref [13],[24]; cited from earlier work
calpain-2 = conditions: read-out: Ki for calpain-2; calpain inhibitor II; ref [13],[24]; cited from earlier work
[3] = system: neuronal and hippocampal culture models of injury; conditions: ref [16]−[19]; cited from earlier work
[4] = system: neurofilament and spectrin proteolysis in the cortex; conditions: continuous intra-arterial infusion after TBI; ref [13],[24]; cited from earlier work
cathepsin B = conditions: read-out: Ki for cathepsin B; calpain inhibitor II; ref [13],[24]; cited from earlier work
cathepsin L = conditions: read-out: Ki for cathepsin L; calpastatin peptide; ref [32]−[35]; cited from earlier work
[5] = system: calpain activity in the hippocampus; assay: Activated CS in hippocampal regions; conditions: dentate gyrus, CA1, CA2, CA3; 1 h after injury; n = 10 mice, unpaired t-test
[6] = target: T1, recombinant human calpain-1; assay: CS activation of PEG conjugates by recombinant human calpain-1; assay type: biochemical; conditions: 37C, 1 h
calpain [7] = assay: Activated CS signal in injured cortex and hippocampus, CCI mouse model; conditions: mouse model of TBI, systemic administration

CC(C)[C@H](NC(=O)OCc1ccccc1)C(=O)N[C@H](C=O)Cc1ccccc1 [MDL-28170] (Cbz-Val-Phe-aldehyde)
IC50 (calpain [1]; MDL-28170, ref [64]): 11 nM | Ki (calpain [1]; MDL-28170, ref [20],[28]): 10 nM

CCCC[C@@H](C=O)NC(=O)[C@H](CC(C)C)NC(=O)[C@H](CC(C)C)NC(C)=O [calpain inhibitor I] (Ac-Leu-Leu-[Nle]-aldehyde)
IC50 (calpain [1]; calpain inhibitor I, ref [63]): 90 nM

APRLEIVPTMYIYKLSPTGSEKLEDER-K(5FAM)-C-NH2 [ScrCAST]
detectable inhibitory activity on calpain-1 [2]: does not have any detectable inhibitory activity up to 1 μM

CC(=O)[C@H]1CC[C@H]2[C@@H]3CCC4=CC(=O)CC[C@]4(C)[C@H]3CC[C@]12C [progesterone]
efficacy as acute stage neuroprotective treatment (TBI): failed to establish efficacy as an acute stage neuroprotective treatment

CSCC[C@@H](C=O)NC(=O)[C@H](CC(C)C)NC(=O)[C@H](CC(C)C)NC(C)=O [calpain inhibitor II] (Ac-Leu-Leu-Met-aldehyde)
Ki (calpain-1): 120 nM | Ki (calpain-2): 230 nM | cell apoptosis, actin and spectrin proteolysis, DNA fragmentation [3]: reduce cell apoptosis, suppress actin and spectrin proteolysis, and inhibit DNA fragmentation | neurofilament and spectrin proteolysis in the cortex [4]: required continuous intra-arterial infusion after TBI to significantly reduce neurofilament and spectrin proteolysis in the cortex | Ki (cathepsin B): 100 nM

CC[C@H](C)[C@H](NC(=O)[C@H](Cc1ccc(O)cc1)NC(=O)[C@@H](NC(=O)[C@H](CO)NC(=O)[C@H](CO)NC(=O)[C@H](CCSC)NC(=O)[C@@H]1CCCN1C(=O)[C@@H](N)CC(=O)O)[C@@H](C)O)C(=O)N[C@@H](CCC(=O)O)C(=O)N[C@@H](CCC(=O)O)C(=O)N[C@@H](CC(C)C)C(=O)NCC(=O)N[C@@H](CCCCN)C(=O)N[C@@H](CCCNC(=N)N)C(=O)N[C@@H](CCC(=O)O)C(=O)N[C@H](C(=O)N[C@H](C(=O)N[C@H](C(=O)N1CCC[C@H]1C(=O)N1CCC[C@H]1C(=O)N[C@@H](CCCCN)C(=O)N[C@@H](Cc1ccc(O)cc1)C(=O)N[C@@H](CCCNC(=N)N)C(=O)N[C@@H](CCC(=O)O)C(=O)N[C@@H](CC(C)C)C(=O)N[C@@H](CC(C)C)C(=O)N[C@@H](C)C(=O)N[C@@H](CCCCNC(=O)c1ccc2c(c1)C(=O)OC21c2ccc(O)cc2Oc2cc(O)ccc21)C(=O)N[C@@H](CS)C(N)=O)[C@@H](C)CC)[C@@H](C)O)C(C)C [CAST] (H-DPMSSTYIEELGKREVTIPPKYRELLAK(5FAM)C-NH2; N-terminus assumed)
Ki (calpain [1]; calpastatin peptide, ref [32]−[35]): 42.6 nM | Ki (cathepsin L): 6000 nM

CAST–PEG–CS: 40 kDa 8-arm PEG scaffold modified with CAST and CS peptide (activity-based nanotheranostic) (chain 1 DPMSSTYIEELGKREVTIPPKYRELLAKC; chain 2 QEVYGAMPKGC; not fully specified; 5FAM on the added lysine; C-terminal amide; cysteine joined to the 8-arm PEG by maleimide chemistry | QSY21 on the N-terminus; Cy5 on the lysine; PEG2 spacer between K(Cy5) and GC; c)
sensor activation in hippocampal regions [5]: inhibits activation of CS in the injured hippocampus | inhibition of calpain-1 at increased enzyme concentration ([6]; calpain-1 up to 6U (∼380 nM), 8 μM CS): able to inhibit activity and cleavage of the CS substrate compared to ScrCAST–PEG–CS | CS activation by calpain-1 ([6]; conjugates matched to 8 μM CS, 26.6 nM recombinant human calpain-1, Cy5 fluorescence): no measured activation of CS peptide | inhibition of calpain activity, cortical vs hippocampal neurons (calpain [7]): greater ABNT-mediated inhibition of calpain activity in cortical neurons compared to that in hippocampal neurons
